Reference: the supplement of paper PMC11424490

What was measured:
NCI-H2122 [1] = experiment: relative IC50 of cell viability (CellTiter-Glo); higher = less potent
Procedure, shortened: (§1)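 In 384-well plates, NCI-H2122 cells were seeded at 800 cells/well and SW837 and NCI-H358 cells at 500 cells/well, all in 60 µl. Single compounds were added by acoustic dispensing in dose series 24 h later, with incubation for 72 h for NCI-H2122 and NCI-H358 and 144 h for SW837. CellTiter-Glo luminescence was read on an EnVision reader after 15 min shaking and expressed as percent of DMSO controls. A four-parameter nonlinear fit gave the relative IC50, averaged over replicates, and the lower plateau.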

NCI-H358 [2] = experiment: as above
Procedure, shortened: as §1

NCI-H2122 [3] = experiment: fitted bottom plateau of viability curve, % of DMSO control; higher = less maximal inhibition; extreme values may be limits of the assay
Procedure, shortened: as §1

NCI-H358 [4] = experiment: as above
Procedure, shortened: as §1

SW837 [5] = experiment: as above
Procedure, shortened: as §1

NCI-H2122 [6] = experiment: combination cScore with adagrasib (Bliss gap around IC50) (%PoC); higher = stronger additive effect
Procedure, shortened: (§2)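 NCI-H2122, NCI-H358 and SW837 cells (500 or 800 per well, 384-well plates) were dosed in concentration matrices after 24 h and grown 72 h, or 144 h for SW837. CellTiter-Glo luminescence was normalised to vehicle wells as percent of control and fitted with four-parameter curves. The score averages the Bliss-independence gap (expected minus measured viability) over a field around both monotherapy IC50s, or at the top concentrations when no IC50 was reached.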

NCI-H358 [7] = experiment: as above
Procedure, shortened: as §2

SW837 [8] = experiment: as above
Procedure, shortened: as §2

relative IC50 of cell viability (NCI-H2122 [1])	relative IC50 of cell viability (NCI-H358 [2])	SMILES	fitted bottom plateau of viability curve (NCI-H2122 [3])	fitted bottom plateau of viability curve (NCI-H358 [4])	fitted bottom plateau of viability curve (SW837 [5])	combination cScore with adagrasib (NCI-H2122 [6])	combination cScore with adagrasib (NCI-H358 [7])	combination cScore with adagrasib (SW837 [8])
867 nM	712 nM	C[C@H](Nc1ccc2c(c1)OCCn1cc(N3C(=O)OC[C@H]3C(F)F)nc1-2)C(N)=O [GDC-0077] (top concentration tested 10000 nM)	48.4%	23.1%	68.7%	–	–	–
2070 nM	1340 nM	COc1cc2/c(=N/c3ccc(Br)cc3F)nc[nH]c2cc1OCC1CCN(C)CC1 [Vandetanib] (top concentration tested 10000 nM)	49.8%	3.22%	82.1%	–	–	–
4260 nM	1300 nM	C#Cc1cccc(Nc2ncnc3cc(OCCOC)c(OCCOC)cc23)c1 [Erlotinib] (top concentration tested 10000 nM)	29.5%	12.3%	82.2%	–	–	–
–	262 nM	C=CC(=O)N1CCC[C@@H](n2nc(-c3ccc(Oc4ccccc4)cc3)c3c(N)ncnc32)C1 [Ibrutinib] (top concentration tested 10000 nM)	76.7%	12.4%	76.6%	–	–	–
–	859 nM	CC(=O)c1c(C)c2cnc(Nc3ccc(N4CCNCC4)cn3)nc2n(C2CCCC2)c1=O [Palbociclib] (top concentration tested 5000 nM)	59.8%	34.2%	93.5%	–	–	–
–	28 nM	CCN(CCCOc1ccc2c(Nc3cc(CC(=O)Nc4cccc(F)c4)[nH]n3)ncnc2c1)CCOP(=O)(O)O [AZD-1152] (top concentration tested 1000.1 nM)	57.4%	60.1%	62%	–	–	–
–	–	Cc1nc(Nc2ncc(C(=O)Nc3c(C)cccc3Cl)s2)cc(N2CCN(CCO)CC2)n1 [Dasatinib] + C=C(F)C(=O)N1CCN(c2nc(OC[C@@H]3CCCN3C)nc3c2CCN(c2cccc4cccc(Cl)c24)C3)C[C@@H]1CC#N [adagrasib]	–	–	–	42	8.94	14.7
–	–	COc1cc(Nc2c(C#N)cnc3cc(OCCCN4CCN(C)CC4)c(OC)cc23)c(Cl)cc1Cl [Bosutinib] + C=C(F)C(=O)N1CCN(c2nc(OC[C@@H]3CCCN3C)nc3c2CCN(c2cccc4cccc(Cl)c24)C3)C[C@@H]1CC#N [adagrasib]	–	–	–	14.5	1.58	6.35
–	–	CC(C)C[C@H](NC(=O)[C@H](Cc1ccccc1)NC(=O)c1cnccn1)B(O)O [Bortezomib] + C=C(F)C(=O)N1CCN(c2nc(OC[C@@H]3CCCN3C)nc3c2CCN(c2cccc4cccc(Cl)c24)C3)C[C@@H]1CC#N [adagrasib]	–	–	–	4.5	0	-1.68
–	499 nM	C[C@@H]1OCC2(CCN(c3cnc(Sc4ccnc(N)c4Cl)c(N)n3)CC2)[C@@H]1N [TNO155] (top concentration tested 10000 nM)	69.5%	29.4%	94.5%	–	–	–
–	–	O=C1c2c(O)ccc(O)c2C(=O)c2c(NCCNCCO)ccc(NCCNCCO)c21 [Mitoxantrone] + C=C(F)C(=O)N1CCN(c2nc(OC[C@@H]3CCCN3C)nc3c2CCN(c2cccc4cccc(Cl)c24)C3)C[C@@H]1CC#N [adagrasib]	–	–	–	12.9	0.02	5.32
–	–	C=CC(=O)N1CCC[C@@H](n2nc(-c3ccc(Oc4ccccc4)cc3)c3c(N)ncnc32)C1 [Ibrutinib] + C=C(F)C(=O)N1CCN(c2nc(OC[C@@H]3CCCN3C)nc3c2CCN(c2cccc4cccc(Cl)c24)C3)C[C@@H]1CC#N [adagrasib]	–	–	–	26.9	9.97	2.16
–	–	C[C@H](Nc1ncnc2nc[nH]c12)c1cc2cccc(Cl)c2c(=O)n1-c1ccccc1 [Duvelisib] + C=C(F)C(=O)N1CCN(c2nc(OC[C@@H]3CCCN3C)nc3c2CCN(c2cccc4cccc(Cl)c24)C3)C[C@@H]1CC#N [adagrasib]	–	–	–	15.9	4.67	12.8
–	–	C[C@H](NC(=O)c1c(N)nn2cccnc12)c1cc2cccc(C#Cc3cnn(C)c3)c2c(=O)n1-c1ccccc1 [IPI-549] + C=C(F)C(=O)N1CCN(c2nc(OC[C@@H]3CCCN3C)nc3c2CCN(c2cccc4cccc(Cl)c24)C3)C[C@@H]1CC#N [adagrasib]	–	–	–	13	-0.57	5.62
–	–	COc1cc(CCc2cc(NC(=O)c3ccc(N4CC(C)NC(C)C4)cc3)n[nH]2)cc(OC)c1 (stereo not given) [AZD4547] + C=C(F)C(=O)N1CCN(c2nc(OC[C@@H]3CCCN3C)nc3c2CCN(c2cccc4cccc(Cl)c24)C3)C[C@@H]1CC#N [adagrasib]	–	–	–	11.3	-1.38	5.13
–	–	Cc1c(N)nc([C@H](CC(N)=O)NC[C@H](N)C(N)=O)nc1C(=O)N[C@H](C(=O)N[C@H](C)[C@@H](O)[C@H](C)C(=O)N[C@H](C(=O)NCCc1nc(-c2nc(C(=O)NCCC[S+](C)C)cs2)cs1)[C@@H](C)O)[C@@H](OC1OC(CO)C(O)C(O)C1OC1OC(CO)C(O)C(OC(N)=O)C1O)c1cnc[nH]1 (stereo not given in full) [Bleomycin] + C=C(F)C(=O)N1CCN(c2nc(OC[C@@H]3CCCN3C)nc3c2CCN(c2cccc4cccc(Cl)c24)C3)C[C@@H]1CC#N [adagrasib]	–	–	–	17.2	-5.7	7.34
–	–	COc1cc2/c(=N/c3ccc(Br)cc3F)nc[nH]c2cc1OCC1CCN(C)CC1 [Vandetanib] + C=C(F)C(=O)N1CCN(c2nc(OC[C@@H]3CCCN3C)nc3c2CCN(c2cccc4cccc(Cl)c24)C3)C[C@@H]1CC#N [adagrasib]	–	–	–	21.3	7.95	27.6
–	–	CCS(=O)(=O)Nc1ccc2c(c1)/C(=C(/Nc1ccc(CN3CCCCC3)cc1)c1ccccc1)C(=O)N2 [Hesperadin] + C=C(F)C(=O)N1CCN(c2nc(OC[C@@H]3CCCN3C)nc3c2CCN(c2cccc4cccc(Cl)c24)C3)C[C@@H]1CC#N [adagrasib]	–	–	–	8.14	0.47	0.27
–	–	CNS(=O)(=O)Nc1nccc(Cc2c(C)c3ccc(Oc4ncccn4)cc3oc2=O)c1F + C=C(F)C(=O)N1CCN(c2nc(OC[C@@H]3CCCN3C)nc3c2CCN(c2cccc4cccc(Cl)c24)C3)C[C@@H]1CC#N [adagrasib]	–	–	–	9.73	3.4	3.07
–	–	O=c1cc(-c2cccc3c2Sc2ccccc2S3)oc(N2CCOCC2)c1 + C=C(F)C(=O)N1CCN(c2nc(OC[C@@H]3CCCN3C)nc3c2CCN(c2cccc4cccc(Cl)c24)C3)C[C@@H]1CC#N [adagrasib]	–	–	–	12.4	7.9	4.85
–	–	C=CC(=O)Nc1cc(Nc2nccc(-c3cn(C)c4ccccc34)n2)c(OC)cc1N(C)CCN(C)C [Osimertinib] + C=C(F)C(=O)N1CCN(c2nc(OC[C@@H]3CCCN3C)nc3c2CCN(c2cccc4cccc(Cl)c24)C3)C[C@@H]1CC#N [adagrasib]	–	–	–	10	8.16	26.1
–	–	O=C(/C=C/c1cccc(S(=O)(=O)Nc2ccccc2)c1)NO [Belinostat] + C=C(F)C(=O)N1CCN(c2nc(OC[C@@H]3CCCN3C)nc3c2CCN(c2cccc4cccc(Cl)c24)C3)C[C@@H]1CC#N [adagrasib]	–	–	–	7.12	-4.65	5.49
–	3910 nM	Cc1c(CN2CCC(Nc3ncnc4sc(CC(F)(F)F)cc34)CC2)ccc2[nH]c(C#N)cc12 [MI-463] (top concentration tested 5000 nM)	79.5%	0%	86.6%	–	–	–
